Key:
[1] = target: T1, A-Raf kinase (Homo sapiens, UniProt P10398, Y301D/Y302D); assay: Biochemical assay for A-Raf.1 (coupled pyruvate kinase/lactate dehydrogenase); settings: read-out: ARAF.1 IC50
T1 construct: purchased Sigma
Summary of the method: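 A-Raf (5.55 nM) phosphorylating 30.1 nM MEK with 1 mM ATP was monitored by pyruvate kinase/lactate dehydrogenase-coupled NADH oxidation at 340 nm for 6 h at 30° C, in pH 7.5 Tris buffer with 15 mM MgCl2, 1% DMSO. Rates from 4–5 h gave percent inhibition; IC50 by four-parameter fit.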

[2] = target: T2, B-Raf (V600E) kinase (Homo sapiens, UniProt P15056, V600E); assay: Biochemical assay for B-Raf (V600E).1 (coupled pyruvate kinase/lactate dehydrogenase); settings: read-out: BRAF V600E.1 IC50
T2 construct: B-Raf (V600E) residues 416-766 with a; GST (N); purchased SignalChem
T2 sequence (P15056 416-766 V600E): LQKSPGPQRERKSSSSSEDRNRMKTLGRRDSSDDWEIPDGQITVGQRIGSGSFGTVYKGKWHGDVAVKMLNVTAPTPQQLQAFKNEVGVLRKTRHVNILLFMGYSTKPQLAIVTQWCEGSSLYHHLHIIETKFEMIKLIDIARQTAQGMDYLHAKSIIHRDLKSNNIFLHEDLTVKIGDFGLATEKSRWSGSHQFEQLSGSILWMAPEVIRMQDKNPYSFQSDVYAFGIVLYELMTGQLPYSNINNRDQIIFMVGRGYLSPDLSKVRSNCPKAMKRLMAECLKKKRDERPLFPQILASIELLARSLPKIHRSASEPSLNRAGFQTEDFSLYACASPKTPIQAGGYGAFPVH
Summary of the method: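 0.03 nM B-Raf(V600E) phosphorylating 30.1 nM MEK at 1 mM ATP, pH 7.5, coupled to PK/LDH, with NADH oxidation followed at 340 nm for 6 h at 30 °C. Rates taken from the 3-4 h window. IC50 from a four-parameter fit of percent inhibition.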

[3] = system: A375 cells; assay: A375 cell proliferation assay (1), resazurin, 96-well; type: cell-based; settings: Homo sapiens, A-375, inhibition of cell proliferation
Summary of the method: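 Viability was read by resazurin fluorescence at 540 nm excitation and 600 nm emission, using a 440 μM solution added for 5–6 h at the end of culture. IC50 came from the curve fit.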

[4] = system: H2405 cells; assay: H2405 cell proliferation assay (1), resazurin, 96-well; type: cell-based; settings: Homo sapiens, NCI-H2405, inhibition of cell proliferation
Protocol: H2405 Cell Proliferation Assay (1)
H2405 cells (catalog #CRL-5944) are obtained from the American Type Culture Collect (ATTC, Manassas, VA). Briefly, cells were grown in RPMI 1640 supplemented with 5% characterized fetal bovine serum (Invitrogen, Carlsbad, CA) and 1% Penicillin/Streptomycin/L-Glutamine at 37° C., 5% CO2, and 95% humidity. Cells are expanded until reaching 70-95% confluency at which point they are subcultured or harvested for assay use. A serial dilution of test compound is dispensed into a 96-well black clear bottom plate in triplicate. Three thousand cells are added per well in 200 μL complete growth medium in the 96-well plate. Plates are incubated for 67-72 hours at 37° C., 5% CO2, and 95% humidity. At the end of the incubation, 40 μL of a 440 μM solution of resazurin (Sigma, St. Louis, MO) in PBS is added to each well of the plate and plates are incubated for an additional 5-6 hours at 37° C., 5% CO2, and 95% humidity. Plates are read on a Synergy2 or equivalent reader (Biotek, Winooski VT) using an excitation of 540 nm and an emission of 600 nm. Data is analyzed using Prism software (GraphPad, San Diego, CA) to calculate IC50 values.

T1 sequence (P10398 with tags, fused parts or gaps Y301D/Y302D): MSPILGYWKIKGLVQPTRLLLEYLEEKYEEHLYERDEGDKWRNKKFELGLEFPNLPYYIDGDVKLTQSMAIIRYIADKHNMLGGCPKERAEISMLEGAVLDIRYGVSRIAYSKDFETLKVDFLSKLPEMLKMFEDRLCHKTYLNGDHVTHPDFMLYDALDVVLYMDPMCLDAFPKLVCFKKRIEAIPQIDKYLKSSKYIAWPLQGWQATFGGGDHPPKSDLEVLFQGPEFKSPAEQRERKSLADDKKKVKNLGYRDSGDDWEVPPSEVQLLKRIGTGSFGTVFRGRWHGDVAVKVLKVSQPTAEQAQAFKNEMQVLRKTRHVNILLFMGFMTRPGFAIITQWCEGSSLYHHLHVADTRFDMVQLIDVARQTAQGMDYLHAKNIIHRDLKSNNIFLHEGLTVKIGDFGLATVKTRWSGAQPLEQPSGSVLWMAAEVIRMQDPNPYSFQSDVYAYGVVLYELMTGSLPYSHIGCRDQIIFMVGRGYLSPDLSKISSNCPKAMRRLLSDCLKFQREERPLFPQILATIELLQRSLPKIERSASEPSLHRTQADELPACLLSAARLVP

COC(=O)Nc1cc(-c2nc(OCCO)cc(-c3cc(NC(=O)NC4CC(C)(C)C4)c(F)cc3C)n2)ccn1 [Example 158]
IC50 [1]: > 1000 nM | IC50 [2]: ≤ 100 nM | IC50 [3]: ≤ 100 nM | IC50 [4]: ≤ 100 nM

COC[C@@H]1CCN(C(=O)Nc2cnc(C)c(-c3cc(OCCO)nc(-c4ccnc(NC(=O)OC)c4)c3)c2)C1 [Example 160]
IC50 [1]: > 1000 nM | IC50 [2]: ≤ 100 nM | IC50 [3]: 1000 to 10000 nM | IC50 [4]: 1000 to 10000 nM

COC(=O)Nc1nccc(-c2cc(OCCO)cc(-c3cc(NC(=O)NCCC4(C)CC4)c(F)cc3C)c2)n1 [Example 122]
IC50 [1]: > 1000 nM | IC50 [2]: ≤ 100 nM | IC50 [3]: 500 to 1000 nM | IC50 [4]: 500 to 1000 nM

COC(=O)Nc1cc(-c2cc(-c3cc(NC(=O)NC[C@H]4CCO4)c(F)cc3C)cc(OCCO)n2)ccn1 [Example 96]
IC50 [1]: > 1000 nM | IC50 [2]: ≤ 100 nM | IC50 [3]: 1000 to 10000 nM | IC50 [4]: 1000 to 10000 nM

Cc1cc(F)c(NC(=O)NCCC2(C)CC2)cc1-c1cnnc(-c2ccnc(NC(=O)C3CC3)c2)c1 [Example 168]
IC50 [1]: 500 to 1000 nM | IC50 [2]: ≤ 100 nM | IC50 [3]: 100 to 500 nM | IC50 [4]: ≤ 100 nM

Cc1cc(F)c(NC(=O)NCC(C)C)cc1-c1cc(OCCO)nc(-c2ccnc(NC(=O)C3CC3)c2)c1 [Example 99]
IC50 [1]: 500 to 1000 nM | IC50 [2]: ≤ 100 nM | IC50 [3]: 1000 to 10000 nM | IC50 [4]: 100 to 500 nM

Cc1cc(F)c(NC(=O)NCCC(F)F)cc1-c1cc(OCCO)nc(-c2ccnc(NC(=O)C3CC3)c2)c1 [Example 105]
IC50 [1]: 100 to 500 nM | IC50 [2]: ≤ 100 nM | IC50 [3]: 1000 to 10000 nM | IC50 [4]: 500 to 1000 nM

CNC(=O)c1cc(-c2cnnc(-c3cc(NC(=O)NCCC(C)(C)C)c(F)cc3C)c2)ccn1 [Example 119]
IC50 [1]: > 1000 nM | IC50 [2]: ≤ 100 nM | IC50 [3]: 1000 to 10000 nM | IC50 [4]: 1000 to 10000 nM

COC1(CCNC(=O)Nc2cnc(C)c(-c3ccnc(-c4ccnc(NC(=O)C5CC5)c4)n3)c2)CC1 [Example 137]
IC50 [1]: > 1000 nM | IC50 [2]: ≤ 100 nM | IC50 [3]: 1000 to 10000 nM | IC50 [4]: 1000 to 10000 nM

COC(C)(C)CCNC(=O)Nc1cc(-c2cc(-c3ccnc(NC(=O)C4CC4)c3)cnn2)c(C)cc1F [Example 142]
IC50 [1]: > 1000 nM | IC50 [2]: ≤ 100 nM | IC50 [3]: 1000 to 10000 nM | IC50 [4]: 500 to 1000 nM

CNC(=O)c1cc(-c2cnnc(-c3cc(NC(=O)NCCC(C)(C)F)c(F)cc3C)c2)ccn1 [Example 132]
IC50 [1]: > 1000 nM | IC50 [2]: ≤ 100 nM | IC50 [3]: 1000 to 10000 nM | IC50 [4]: 1000 to 10000 nM

COC[C@H]1CCN(C(=O)Nc2cc(-c3cc(-c4ccnc(NC(=O)OC)c4)cnn3)c(C)cc2F)C1 [Example 148]
IC50 [1]: > 1000 nM | IC50 [2]: ≤ 100 nM | IC50 [3]: 1000 to 10000 nM | IC50 [4]: 1000 to 10000 nM

COC(=O)Nc1cc(-c2cc(-c3cc(NC(=O)NCCC4(C)CC4)cnc3C)ccn2)ccn1 [Example 103]
IC50 [1]: > 1000 nM | IC50 [2]: ≤ 100 nM | IC50 [3]: 1000 to 10000 nM | IC50 [4]: 1000 to 10000 nM

COC[C@@H]1CCN(C(=O)Nc2cc(-c3cc(-c4ccnc(NC(=O)OC)c4)cnn3)c(C)cc2F)C1 [Example 149]
IC50 [1]: > 1000 nM | IC50 [2]: ≤ 100 nM | IC50 [3]: 1000 to 10000 nM | IC50 [4]: 1000 to 10000 nM

COC(=O)Nc1cc(-c2cnnc(-c3cc(NC(=O)N4CCC(CC(F)(F)F)C4)c(F)cc3C)c2)ccn1 (stereo not shown) [Example 150]
IC50 [1]: > 1000 nM | IC50 [2]: ≤ 100 nM | IC50 [3]: 1000 to 10000 nM | IC50 [4]: 500 to 1000 nM

Cc1cc(F)c(NC(=O)NCCC(C)(C)F)cc1-c1cc(OCCO)nc(-c2ccnc3[nH]ncc23)c1 [Example 94]
IC50 [1]: > 1000 nM | IC50 [2]: ≤ 100 nM | IC50 [3]: 500 to 1000 nM | IC50 [4]: 100 to 500 nM

Cc1cc(F)c(NC(=O)NCCC(C)(C)F)cc1-c1ccnc(-c2ccnc(NC(=O)C3CC3)c2)c1 [Example 159]
IC50 [1]: 500 to 1000 nM | IC50 [2]: ≤ 100 nM | IC50 [3]: 1000 to 10000 nM | IC50 [4]: 100 to 500 nM

Cc1ncc(NC(=O)NC2CC(C)(C)C2)cc1-c1cc(OCCO)nc(-c2ccnc(NC(=O)C3CC3)c2)c1 [Example 126]
IC50 [1]: 500 to 1000 nM | IC50 [2]: ≤ 100 nM | IC50 [3]: 100 to 500 nM | IC50 [4]: 500 to 1000 nM

COC(=O)Nc1cc(-c2nc(OCCO)cc(-c3cc(NC(=O)NCCC(C)(C)F)c(F)cc3C)n2)ccn1 [Example 161]
IC50 [1]: > 1000 nM | IC50 [2]: ≤ 100 nM | IC50 [3]: 100 to 500 nM | IC50 [4]: ≤ 100 nM

COC(=O)Nc1cc(-c2cc(-c3cc(NC(=O)NCCC(C)(C)F)cnc3C)cc(OCCO)n2)ccn1 [Example 165]
IC50 [1]: > 1000 nM | IC50 [2]: ≤ 100 nM | IC50 [3]: 1000 to 10000 nM | IC50 [4]: 100 to 500 nM

Cc1cc(F)c(NC(=O)NCCC(C)(C)C)cc1-c1cc(-c2ccnc(NC(=O)C3CC3)c2)cnn1 [Example 131]
IC50 [1]: 100 to 500 nM | IC50 [2]: ≤ 100 nM | IC50 [3]: ≤ 100 nM | IC50 [4]: 100 to 500 nM

Cc1ncc(NC(=O)NCCC2(C)CC2)cc1-c1ccnc(-c2ccnc(NC(=O)C3(C#N)CC3)c2)c1 [Example 169]
IC50 [1]: > 1000 nM | IC50 [2]: ≤ 100 nM | IC50 [3]: 1000 to 10000 nM | IC50 [4]: 100 to 500 nM

COC(=O)Nc1cc(-c2cc(-c3cc(NC(=O)NCCC4(C)CC4)cnc3C)cc(OCCO)n2)ccn1 [Example 151]
IC50 [1]: > 1000 nM | IC50 [2]: ≤ 100 nM | IC50 [3]: 1000 to 10000 nM | IC50 [4]: 100 to 500 nM

Cc1cc(F)c(NC(=O)NCCC(C)(C)C)cc1-c1cc(N2CCOCC2)nc(N2CCOCC2)c1 [Example 10]
IC50 [1]: > 1000 nM | IC50 [2]: ≤ 100 nM | IC50 [3]: 100 to 500 nM | IC50 [4]: 500 to 1000 nM

Cc1cc(F)c(NC(=O)NCCC2(C)CC2)cc1-c1ccnc(-c2ccnc(NC(=O)C3CC3)c2)c1 [Example 134]
IC50 [1]: 500 to 1000 nM | IC50 [2]: ≤ 100 nM | IC50 [3]: 1000 to 10000 nM | IC50 [4]: 500 to 1000 nM

Cc1cc(F)c(NC(=O)NCCC(C)(C)C)cc1-c1cc(OCCO)nc(C2=CCOCC2)c1 [Example 7]
IC50 [1]: > 1000 nM | IC50 [2]: ≤ 100 nM | IC50 [3]: 1000 to 10000 nM | IC50 [4]: ≤ 100 nM

CNC(=O)c1cc(-c2cc(-c3cc(NC(=O)NCCC4(C)CC4)c(F)cc3C)cc(OCCO)n2)ccn1 [Example 164]
IC50 [1]: > 1000 nM | IC50 [2]: ≤ 100 nM | IC50 [3]: ≤ 100 nM | IC50 [4]: 100 to 500 nM

Cc1cc(F)c(NC(=O)NCC23CC(F)(C2)C3)cc1-c1cc(OCCO)nc(-c2ccnc3[nH]ncc23)c1 [Example 111]
IC50 [1]: > 1000 nM | IC50 [2]: ≤ 100 nM | IC50 [3]: 1000 to 10000 nM | IC50 [4]: 1000 to 10000 nM

COC1(CCNC(=O)Nc2cc(-c3ccnc(-c4ccnc(NC(=O)C5CC5)c4)n3)c(C)cc2F)CC1 [Example 117]
IC50 [1]: 100 to 500 nM | IC50 [2]: ≤ 100 nM | IC50 [3]: 1000 to 10000 nM | IC50 [4]: 100 to 500 nM

COC(C)(C)CCNC(=O)Nc1cc(-c2ccnc(-c3ccnc(NC(=O)C4CC4)c3)n2)c(C)cc1F [Example 108]
IC50 [1]: 100 to 500 nM | IC50 [2]: ≤ 100 nM | IC50 [3]: 500 to 1000 nM | IC50 [4]: 100 to 500 nM

COC(=O)Nc1cc(-c2cc(-c3cc(NC(=O)NC4CC(C)(C)C4)cnc3C)cc(OCCO)n2)ccn1 [Example 156]
IC50 [1]: > 1000 nM | IC50 [2]: ≤ 100 nM | IC50 [3]: 1000 to 10000 nM | IC50 [4]: 100 to 500 nM

From patent US20230357179A1, “RAF KINASE INHIBITORS AND METHODS OF USE THEREOF” (Deciphera Pharmaceuticals, LLC, priority 2021, published 2023)
